Data reported in patent US20240174645A1, “COMPOUND, PRODUCTION METHOD THEREFOR, COMPLEX, AND SHORT WAVELENGTH INFRARED FLUORESCENT AGENT” (RIKEN, priority 2021, published 2024).

System: HeLa cell
Assay: Cytotoxicity test (MTT, cell viability)
Type: cell-based
Conditions: HeLa cells, concentrations of 1 nM to 100 nM, cultured for 6 hours, 24 hours, or 48 hours
Experimental: HeLa cell was seeded on a 96-well plate at 6×10^3 per well and was cultured overnight. Aqueous solutions of the compound 4 at concentrations of 0.1 nM, 1 nM, 10 nM and 100 nM were prepared as test agents, and the test agent at each concentration was added to the well, and HeLa cells were further cultured for 6, 24, and 48 hours. After the culturing for each of the above hours, MTT (3-(4,5-di-methylthiazol-2-yl)-2,5-diphenyltetrazolium bromide) reagent was added to the well, and the resultant product was further cultured for 2 hours.
After the culturing for 2 hours, a solubilizing solution was added to the well, and formazan produced in the living cell was dissolved by pipetting. By sealing the 96-well plate and allowing the resultant product to stand in an incubator overnight at 37° C., formazan was completely solubilized. A plate reader was used to measure 570 nm (formazan dye) and 650 nm (background), and the cell viability of the well to which the test agent of each concentration was added was determined, with the cell viability of a well without the addition of a test agent being 100%.
Culturing of HeLa cells and determination of cell viability of the well were performed as in the cytotoxicity test for the compound 4, except that a test agent was prepared using the compound 10 instead of the compound 4.

## CC1(C)C(/C=C/C=C/C=C/C=C/C=C/C=C2/N(CCCCS(=O)(=O)O)c3ccc4ccccc4c3C2(C)C)=[N+](CCCCS(=O)(=O)[O-])c2ccc3ccccc3c21 [compound 10, ICG-C11]
  cytotoxicity (cell viability): did not exhibit cytotoxicity
